Consider four compounds from PMC11822212, “High-throughput screening identifies Aurora kinase B as a critical therapeutic target for Merkel cell carcinoma” (Nature Communications, 2025).

Like-named read-outs stand apart in the source and are kept apart here.

Assay [1] relates to MCC13 cells (VN-MCC). Put plainly: qHTS cell viability (CellTiter-Glo, 72 h; primary and follow-up small molecule screen). Type of assay: cell-based, human.
Assay [2] deals with MCC26 cells (VN-MCC). The assay is described as above. Type of assay: cell-based, human.
For assay [3], the system named is UISO cells (VN-MCC). Described as above. Type of assay: cell-based, human.
Assay [4] deals with WAGA cells (VP-MCC). Described as above. Type of assay: cell-based, human.
The test system of assay [5] is MKL-1 cells (VP-MCC). The description is as above. Type of assay: cell-based, human.
Assay [6] concerns MKL-2 cells (VP-MCC). The assay is described as above. Type of assay: cell-based, human.
For assay [7], the system named is HACAT cells. In words: qHTS cell viability (CellTiter-Glo, 72 h; primary screen), control cell line. Type of assay: cell-based, human.
For assay [8], the system named is HEK293T cells. The description is as above. Type of assay: cell-based, human.
Assay [9] concerns NIH-3T3 cells. The assay is described as above. Type of assay: cell-based, mouse.
For assay [10], the system named is CRL-7250 cells. Described as above. Type of assay: cell-based.
Assay [11] has as its system MCC cell lines (WAGA, MKL-1, MKL-2, MCC13, MCC26, UISO). Put plainly: qHTS cell viability, all six MCC cell lines as a group (mean AUC, MCC.avg). Type of assay: cell-based, human.
In assay [12] the test system is VP-MCC cell lines (WAGA, MKL-1, MKL-2). In words: qHTS cell viability, VP-MCC cell lines as a group (mean AUC, VP.MCC.avg). Type of assay: cell-based, human.
The test system of assay [13] is VN-MCC cell lines (MCC13, MCC26, UISO). Put plainly: qHTS cell viability, VN-MCC cell lines as a group (mean AUC, VN.MCC.avg). Type of assay: cell-based, human.
The subject of assay [14] is control cell lines (HACAT, HEK293T, CRL-7250, NIH-3T3). In words: qHTS cell viability, control cell lines as a group (mean AUC, Control.avg). Type of assay: cell-based.
Assay [15] concerns six MCC cell lines and four control cell lines. Put plainly: qHTS cell viability, all 10 cell lines screened. Type of assay: cell-based.
Setting [16] is: NPC library, qHTS dose-response AUC, MCC13.
Setting [17] is: NPC library, qHTS dose-response AUC, UISO.
Where [18] appears, read: NPC library, qHTS dose-response AUC, WAGA.
Where [19] appears, read: NPC library, qHTS dose-response AUC, MKL1.
Setting [20] is: NPC library, qHTS dose-response AUC, MKL2.
The mark [21] stands for this setting: NPC library, qHTS dose-response AUC, HACAT control.
The mark [22] stands for this setting: NPC library; qHTS dose-response AUC, HEK293T control.
The mark [23] stands for this setting: NPC library, qHTS dose-response AUC, NIH3T3 control.
Setting [24] is: NPC library, qHTS dose-response AUC, CRL7250 control.
The mark [25] stands for this setting: NPC library, mean AUC of six MCC cell lines.
Where [26] appears, read: NPC library, mean AUC of VP-MCC cell lines.
Where [27] appears, read: NPC library, therapeutic window: Control avg AUC minus VP-MCC avg AUC.
[28] abbreviates: NPC library, mean AUC of VN-MCC cell lines.
Setting [29] is: NPC library, therapeutic window: Control avg AUC minus VN-MCC avg AUC.
Where [30] appears, read: NPC library, mean AUC of control cell lines.
Where [31] appears, read: NPC library, therapeutic window: Control avg AUC minus MCC avg AUC.
[32] abbreviates: MIPE library, 11-point DRC, sheet S2E.
The mark [33] stands for this setting: MIPE library, 11-point DRC, control cell line, sheet S2E.

`Cc1ccc([N+](=O)[O-])[c]2c1[O][Hg]2` [Nitromersol] registered an MCC13_AUC in [1] of 325.021. Further, in [2], the MCC26_AUC turned out to be 361.414. The compound further had a UISO_AUC in assay [3] of 294.101. The compound also had a WAGA_AUC in [4] of 281.054. The same compound displayed an MKL1_AUC in [5] of 252.702. For the same compound, the MKL2_AUC in [6] is 228.637. This compound showed an HACAT_AUC in [7] of 397.686. This compound also showed an HEK293T_AUC in [8] of 310.441. This compound returned an NIH3T3_AUC in assay [9] of 388.302. This compound also registered a CRL7250_AUC in [10] of 286.086. Besides, the MCC_Avg_AUC in assay [11] was 290.488. In assay [12], this compound displayed a Control-VP-MCC of 91.4976 and a VP-MCC_Avg_AUC of 254.131. In [13], this compound yielded a Control-VN-MCC of 18.7838 and a VN-MCC_Avg_AUC of 326.845. Further, in assay [14], the Control_Avg_AUC is reported as 345.629. Also, the Control-MCC in assay [15] is 55.1407.

The compound `N=C(N)NN=C(/C=C/c1ccc([N+](=O)[O-])o1)/C=C/c1ccc([N+](=O)[O-])o1` [Nitrovin] had an MCC13_AUC in [1] (setting [16]) of 392.271. This compound gave an MCC26_AUC in [2] (NPC library; qHTS dose-response AUC, MCC26) of 411.446. Also, the UISO_AUC in [3] (setting [17]) is 349.388. Besides, the WAGA_AUC in [4] (setting [18]) is given as 248.028. This compound registered an MKL1_AUC in assay [5] (setting [19]) of 291.263. In assay [6] (setting [20]), this compound had an MKL2_AUC of 260.273. The HACAT_AUC in assay [7] (setting [21]) amounted to 415.924. This compound also returned an HEK293T_AUC in assay [8] (setting [22]) of 356.338. For the same compound, in assay [9] (setting [23]), the NIH3T3_AUC worked out at 385.648. The compound also registered a CRL7250_AUC in assay [10] (setting [24]) of 323.737. The compound further returned an MCC_Avg_AUC in [11] (setting [25]) of 325.445. Also, the VP-MCC_Avg_AUC in assay [12] (setting [26]) is given as 266.521. In assay [12] (setting [27]), the Control-VP-MCC came to 103.891. This compound also returned a VN-MCC_Avg_AUC in assay [13] (setting [28]) of 384.368. The compound further gave a Control-VN-MCC in [13] (setting [29]) of -13.9562. Moreover, the Control_Avg_AUC in [14] (setting [30]) is 370.412. The compound further came in with a Control-MCC in assay [15] (setting [31]) of 44.9672.

Take `CCCCCCCCOc1ccccc1C(=O)Nc1ccc(C(=O)OCC[N+](C)(CC)CC)cc1` [Octylonium bromide]: the MCC13_AUC in [1] (setting [16]) was determined as 437.863. The compound further showed an MCC26_AUC in assay [2] (NPC library, qHTS dose-response AUC, MCC26) of 427.666. The same compound registered a UISO_AUC in assay [3] (setting [17]) of 389.713. Moreover, the WAGA_AUC in assay [4] (setting [18]) came out at 419.958. The compound also had an MKL1_AUC in assay [5] (setting [19]) of 364.23. This compound also returned an MKL2_AUC in assay [6] (setting [20]) of 359.851. Besides, in [7] (setting [21]), the HACAT_AUC came to 466.719. In addition, the HEK293T_AUC in assay [8] (NPC library, qHTS dose-response AUC, HEK293T control) stood at 439.212; in assay [8] (setting [22]), 439.213. The compound also registered an NIH3T3_AUC in assay [9] (setting [23]) of 470.129. In assay [10] (setting [24]), this compound yielded a CRL7250_AUC of 483.471. Further, the MCC_Avg_AUC came out at 399.88 in assay [11] (NPC library, mean AUC of all 6 MCC cell lines) and 399.88 in [11] (setting [25]). For the same compound, the Control-VP-MCC in [12] (Control AUC minus VP-MCC AUC) and in assay [12] (setting [27]) was 83.5367 throughout. This compound registered a VP-MCC_Avg_AUC in assay [12] (setting [26]) of 381.346. Also, the Control-VN-MCC in assay [13] (Control AUC minus VN-MCC AUC) and in assay [13] (setting [29]) was 46.4688 each time. In assay [13] (setting [28]), the VN-MCC_Avg_AUC turned out to be 418.414. In assay [14] (setting [30]), this compound came in with a Control_Avg_AUC of 464.883. Also, the Control-MCC in assay [15] (setting [31]) was 65.0028.

`Cc1[nH]c(/C=C2\C(=O)Nc3ccccc32)c(C)c1CCC(=O)O` [Orantinib]: in [1] (setting [32]), the MCC13_AUC was 429.293. In assay [2] (setting [32]), this compound registered an MCC26_AUC of 450.485. For the same compound, the UISO_AUC in assay [3] (setting [32]) was determined as 326.059. For the same compound, in assay [4] (setting [32]), the WAGA_AUC came out at 255.586. Further, the MKL1_AUC in [5] (setting [32]) came out at 273.854. Also, the MKL2_AUC in assay [6] (setting [32]) is listed as 325.675. The compound further showed an HACAT_AUC in assay [7] (setting [33]) of 472.413. Besides, the HEK293T_AUC in assay [8] (setting [33]) amounted to 367.406. The NIH3T3_AUC in assay [9] (setting [33]) was determined as 371.272. In addition, in [10] (setting [33]), the CRL7250_AUC is listed as 403.945. This compound also registered an MCC_Avg_AUC in assay [11] (MIPE library, mean AUC of six MCC cell lines, sheet S2E) of 343.492. This compound had a Control-VP-MCC in assay [12] (MIPE library, Control AUC minus VP-MCC AUC (therapeutic window), sheet S2E) of 118.721. The VP-MCC_Avg_AUC in assay [12] (MIPE library, mean AUC of VP-MCC cell lines, sheet S2E) turned out to be 285.038. The compound further gave a Control-VN-MCC in assay [13] (MIPE library, Control AUC minus VN-MCC AUC (therapeutic window), sheet S2E) of 1.813. In assay [13] (MIPE library, mean AUC of VN-MCC cell lines, sheet S2E), this compound showed a VN-MCC_Avg_AUC of 401.946. This compound returned a Control_Avg_AUC in assay [14] (MIPE library, mean AUC of control cell lines, sheet S2E) of 403.759. The same compound showed a Control-MCC in [15] (MIPE library, Control AUC minus MCC AUC (therapeutic window), sheet S2E) of 60.2668.
